Tested on: 485368-065-R4-J2-PDC spheroids with HUVEC/MSC, viability
Test: Anticancer human tumor 485368-065-R4-J2-PDC patient-derived pancreatic carcinoma cell line growth inhibition [CLK]
Conditions: for IC50: curve of first compound; for viability, T/C: stronger effect = lower value
Text: A high-throughput screen of multi-cell type tumor spheroids was designed to identify active combinations of […] and targeted small molecules. Complex spheroids include a stromal component modeled by human endothelial cells (HUVEC) and fibroblasts modeled by human mesenchymal stem cells (MSCs). The concentration ranges selected for each drug and investigational agent were based upon clinically achievable concentrations if the clinical Cmax of the agent was known.
Compounds. The drugs and investigational agents: cirtuvivint (SM08502; NSC835563), CC-671 (NSC850746), vemurafenib (NSC761431), tapotoclax (NSC804041), sotorasib (NSC818433), adagrasib (NSC831453), MRTX-1133 (NSC836407), BAY2416964 (NSC825713), copanlisib (NSC816437), inavolisib (NSC800729), abemaciclib (NSC768073), osimertinib (NSC779217), entinostat (NSC756642), eltanexor (KPT-8602, NSC794443), venetoclax (NSC766270), ceralasertib (NSC777638), bortezomib (NSC756655), olaparib (NSC753686), talazoparib (NSC767125), alisertib (NSC759677), peposertib (NSC802822), gemcitabine (NSC613327), 5-fluorouracil (NSC19893), SN-38 (NSC673596), oxaliplatin (NSC266046), paclitaxel (NSC125973), and doxorubicin (NSC123127), were obtained from the National Cancer Institute (NCI) Developmental Therapeutics Program Chemical Repository. The FDA-approved anticancer drug set is available from the Developmental Therapeutics Program at https://dtp.cancer.gov/organization/dscb/obtaining/available plates.htm. […] The stock solutions were prepared in dimethyl sulfoxide (DMSO, Sigma-Aldrich, St. Louis, MO, cat. D2650), except for the platinum complexes which were prepared in saline (Quality Biological, Gaithersburg, MD, cat. 114-055-101), at 800-fold the tested concentration and stored at -70 degrees C prior to their use. All drugs and investigational agents were tested over a range starting from a high concentration at or near the clinical Cmax and decreasing in half-log increments. If the clinical Cmax for an agent had not been determined, the highest concentration tested was 10 microM.
Cell Culture. All cells were maintained in an incubator at 37 degrees C and 5% CO2 with 95% humidity. The PDC lines were cultured according to standard operating procedures established by the NCI PDMR. Briefly, all PDCs were thawed and cultured in Matrigel-coated flasks prepared with a working solution of 1X Ham's F-12 nutrient mix, without supplementation (Invitrogen, Waltham, MA, cat. 11765054), 100 U/mL penicillin-streptomycin (Invitrogen, cat. 15140122), and 2.5% Matrigel (Corning Inc., Corning, NY, cat. 354248) for the first three passages. The 947758-054-R-J2-PDC line was cultured in 6B/Colon 1A media, which includes advanced DMEM/F-12 (Thermo Fisher Scientific, cat. 12634028), 10 mM HEPES (Thermo Fisher Scientific, cat. 15630080), 1X GlutaMAX supplement (Thermo Fisher Scientific, cat. 35050061), 0.1 mg/mL primocin (InvivoGen, cat. ant-pm-2), 10% defined fetal bovine serum, heat inactivated (HyClone Laboratories Inc., cat. SH30070.03HI), 1.25 mM N-Acetyl-L-cysteine (Sigma-Aldrich, cat. A9165), 10 mM nicotinamide (Sigma-Aldrich, cat. N0636), 1X B-27 supplement (Thermo Fisher Scientific, cat. 17504044), 1X N-2 supplement (Thermo Fisher Scientific, cat. 17502048), and 10 microM Y-27632 dihydrochloride (Tocris Bioscience, cat. 1254). The 876862-298-R-J1-PDC was cultured in 6E media, which includes all 6B/Colon 1A media components plus 50% L-WRN conditioned media (ATCC, cat. CRL-3276), 50 ng/mL recombinant human EGF recombinant protein (hEGF; Thermo Fisher Scientific, cat. PHG0311), 10 ng/mL recombinant human fibroblast growth factor 10 (hGFG-10; PeproTech, cat. 100-26), 1 ng/mL recombinant human fibroblast growth factor 2 (hFGF-2; PeproTech, cat. 100-18B), and 1 µM prostaglandin E2 (PGE2; Tocris, cat. 2296). The 227483-062-R1-J1-PDC line was cultured in Panc media, containing all 6E components except hFGF-2, with the addition of 500 nM SB-431542 (Selleckchem, cat. S1067) and 10 nM gastrin (Tocris, cat. 3006). […]

[1] = second compound 0.0316 µM, first compound 0.0316 µM
[2] = second compound 0.0316 µM, first compound 0.1 µM
[3] = second compound 0.0316 µM, first compound 0.316 µM
[4] = second compound 0.0316 µM, first compound 1 µM
[5] = second compound 0.1 µM, first compound 0.0316 µM
[6] = second compound 0.1 µM, first compound 0.1 µM
[7] = second compound 0.1 µM, first compound 0.316 µM
[8] = second compound 0.1 µM, first compound 1 µM
[9] = second compound 0.316 µM, first compound 0.0316 µM
[10] = second compound 0.316 µM, first compound 0.1 µM
[11] = second compound 0.316 µM, first compound 0.316 µM
[12] = second compound 0.316 µM, first compound 1 µM
[13] = second compound 1 µM, first compound 0.0316 µM
[14] = second compound 1 µM, first compound 0.1 µM
[15] = second compound 1 µM, first compound 0.316 µM
[16] = second compound 1 µM, first compound 1 µM
[17] = second compound 3.16 µM, first compound 0.0316 µM
[18] = second compound 3.16 µM, first compound 0.1 µM
[19] = second compound 3.16 µM, first compound 0.316 µM
[20] = second compound 3.16 µM, first compound 1 µM
[21] = second compound 10 µM, first compound 0.0316 µM
[22] = second compound 10 µM, first compound 0.1 µM
[23] = second compound 10 µM, first compound 0.316 µM
[24] = second compound 10 µM, first compound 1 µM
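Also: spheroids exposed to compounds for seven days.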
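For viability, T/C in this document: 100% = DMSO vehicle control wells.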

CCN1CCN(Cc2ccc(Nc3ncc(F)c(-c4cc(F)c5nc(C)n(C(C)C)c5c4)n3)nc2)CC1 + CNC(=O)c1ccc(Nc2nc(OC3CCCC3)c3c(-c4ccc5nc(C)oc5c4)c[nH]c3n2)c(OC)c1
IC50 (second compound 0.0316 µM): > 1 µM | IC50 (second compound 0.1 µM): > 1 µM | IC50 (second compound 0.316 µM): > 1 µM | IC50 (second compound 1 µM): > 1 µM | IC50 (second compound 3.16 µM): > 1 µM | IC50 (second compound 10 µM): > 1 µM | viability, T/C (second compound 0.0316 µM, first compound 0.00316 µM): 95.9% | viability, T/C (second compound 0.0316 µM, first compound 0.01 µM): 106% | viability, T/C [1]: 103% | viability, T/C [2]: 135% | viability, T/C [3]: 134% | viability, T/C [4]: 117% | viability, T/C (second compound 0.1 µM, first compound 0.00316 µM): 89.4% | viability, T/C (second compound 0.1 µM, first compound 0.01 µM): 92% | viability, T/C [5]: 93% | viability, T/C [6]: 95.1% | viability, T/C [7]: 109% | viability, T/C [8]: 100% | viability, T/C (second compound 0.316 µM, first compound 0.00316 µM): 81.5% | viability, T/C (second compound 0.316 µM, first compound 0.01 µM): 81% | viability, T/C [9]: 75.2% | viability, T/C [10]: 66.5% | viability, T/C [11]: 84.5% | viability, T/C [12]: 72.9% | viability, T/C (second compound 1 µM, first compound 0.00316 µM): 71.8% | viability, T/C (second compound 1 µM, first compound 0.01 µM): 77.3% | viability, T/C [13]: 82.8% | viability, T/C [14]: 75.7% | viability, T/C [15]: 75.4% | viability, T/C [16]: 73.2% | viability, T/C (second compound 3.16 µM, first compound 0.00316 µM): 72.7% | viability, T/C (second compound 3.16 µM, first compound 0.01 µM): 71.7% | viability, T/C [17]: 67.1% | viability, T/C [18]: 63.1% | viability, T/C [19]: 60.2% | viability, T/C [20]: 63.2% | viability, T/C (second compound 10 µM, first compound 0.00316 µM): 72.1% | viability, T/C (second compound 10 µM, first compound 0.01 µM): 65.1% | viability, T/C [21]: 66% | viability, T/C [22]: 60.7% | viability, T/C [23]: 60.4% | viability, T/C [24]: 56.3%

CC(CO)NC(=O)c1cc(-c2ccc(Cl)cc2)nn(-c2cnn(C)c2)c1=O (centres undefined) + CNC(=O)c1ccc(Nc2nc(OC3CCCC3)c3c(-c4ccc5nc(C)oc5c4)c[nH]c3n2)c(OC)c1
IC50 (second compound 0.0316 µM): > 10 µM | IC50 (second compound 0.1 µM): > 10 µM | IC50 (second compound 0.316 µM): > 10 µM | IC50 (second compound 1 µM): > 10 µM | IC50 (second compound 3.16 µM): > 10 µM | IC50 (second compound 10 µM): > 10 µM | viability, T/C [1]: 87.9% | viability, T/C [2]: 94.3% | viability, T/C [3]: 87.9% | viability, T/C [4]: 101% | viability, T/C (second compound 0.0316 µM, first compound 3.16 µM): 89.8% | viability, T/C (second compound 0.0316 µM, first compound 10 µM): 103% | viability, T/C [5]: 90.5% | viability, T/C [6]: 97% | viability, T/C [7]: 93.6% | viability, T/C [8]: 103% | viability, T/C (second compound 0.1 µM, first compound 3.16 µM): 92.8% | viability, T/C (second compound 0.1 µM, first compound 10 µM): 97.8% | viability, T/C [9]: 82.8% | viability, T/C [10]: 84.2% | viability, T/C [11]: 82.5% | viability, T/C [12]: 75.4% | viability, T/C (second compound 0.316 µM, first compound 3.16 µM): 86.4% | viability, T/C (second compound 0.316 µM, first compound 10 µM): 85.9% | viability, T/C [13]: 83.7% | viability, T/C [14]: 69.9% | viability, T/C [15]: 73.3% | viability, T/C [16]: 73.9% | viability, T/C (second compound 1 µM, first compound 3.16 µM): 70.2% | viability, T/C (second compound 1 µM, first compound 10 µM): 77.1% | viability, T/C [17]: 72.3% | viability, T/C [18]: 67.2% | viability, T/C [19]: 71% | viability, T/C [20]: 70.6% | viability, T/C (second compound 3.16 µM, first compound 3.16 µM): 69.3% | viability, T/C (second compound 3.16 µM, first compound 10 µM): 76% | viability, T/C [21]: 64.9% | viability, T/C [22]: 71.2% | viability, T/C [23]: 69.6% | viability, T/C [24]: 66.6% | viability, T/C (second compound 10 µM, first compound 3.16 µM): 72.8% | viability, T/C (second compound 10 µM, first compound 10 µM): 70.7%

Source: PubChem BioAssay AID2060617 (Molecular Pharmacology Branch, DTP, NCI, 2025)
